This is an account of results in US10471046B2, “Method for treating, preventing, or reducing the risk of skin infection” (Melinta Subsidiary Corp., priority 2014, dated 2019).

Converted amounts (≈) assume the structure as drawn.

This assay deals with S. aureus. Nature of the assay: Minimum inhibitory concentrations (MICs) for S. aureus of exemplary compounds (Table 2). It counts as cell-based. The settings on record: Staphylococcus aureus, minimum inhibitory concentrations for S. aureus; read-out: MICs. The essentials: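 Growth of S. aureus in media with or without compound, by broth microdilution in microtiter trays following NCCLS M7-A5 guidelines. Values are MICs in μg/mL.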

As to `CC(=O)NC[C@H]1CN(c2ccc(-c3ccc(CNCCSc4nncs4)cc3)c(F)c2)C(=O)O1` [Compound 5003, N-[3-(2-Fluoro-4′-{[2-([1,3,4]thiadiazol-2-ylsulfanyl)-ethylamino]-methyl}-biphenyl-4-yl)-2-oxo-oxazolidin-5-(S)-ylmethyl]-acetamide], the MIC came out at 1 µg/mL (≈ 1.99 µM). Turning to `CC(=O)NC[C@H]1CN(c2ccc(-c3ccc(C(O)Cc4nnn[nH]4)cc3)c(F)c2)C(=O)O1` (stereo in doubt) [Compound 1060, N-(3-{2-Fluoro-4′-[1-(R)-hydroxy-2-(1H-tetrazol-5-yl)-ethyl]-biphenyl-4-yl}-2-oxo-oxazolidin-5-(S)-ylmethyl)-acetamide], the MIC worked out at 64 µg/mL (≈ 145 µM). Then `CC(=O)NC[C@H]1CN(c2ccc(-c3ccc(CN4CC[C@H](N)C4)cc3)c(F)c2)C(=O)O1` [Compound 1092, N-{3-[4′-(3-(S)-Amino-pyrrolidin-1-ylmethyl)-2-fluoro-biphenyl-4-yl]-2-oxo-oxazolidin-5-(S)-ylmethyl}-acetamide], with 4 µg/mL (≈ 9.38 µM); and `CC(=O)NC[C@H]1CN(c2ccc(-c3ccc(CNCc4ccon4)cc3)c(F)c2)C(=O)O1` [Compound 4183, N-[3-(2-Fluoro-4′-{[(isoxazol-3-ylmethyl)-amino]-methyl}-biphenyl-4-yl)-2-oxo-oxazolidin-5-(S)-ylmethyl]-acetamide], with 1 µg/mL (≈ 2.28 µM); and `CC(=O)NC[C@H]1CN(c2ccc(-c3ccc(CNCc4csc(-c5cccs5)n4)cc3)c(F)c2)C(=O)O1` [Compound 4113, N-[3-(2-Fluoro-4′-{[(2-thiophen-2-yl-thiazol-4-ylmethyl)-amino]-methyl}-biphenyl-4-yl)-2-oxo-oxazolidin-5-(S)-ylmethyl]-acetamide], with 0.25 µg/mL (≈ 0.466 µM). Under `CC(=O)NC[C@H]1CN(c2ccc(-c3ccc(CN(C)Cc4ccnc5ccccc45)cc3)c(F)c2)C(=O)O1` [Compound 4032, N-(3-{2-Fluoro-4′-[(methyl-quinolin-4-ylmethyl-amino)-methyl]-biphenyl-4-yl}-2-oxo-oxazolidin-5-(S)-ylmethyl)-acetamide] stands 1 µg/mL (≈ 1.95 µM); under `CC(=O)NC[C@H]1CN(c2ccc(-c3ccc(CNCc4c[nH]c(-c5ccccc5)n4)cc3)c(F)c2)C(=O)O1` [Compound 4123, N-[3-(2-Fluoro-4′-{[(2-phenyl-1H-imidazol-4-ylmethyl)-amino]-methyl}-biphenyl-4-yl)-2-oxo-oxazolidin-5-(S)-ylmethyl]-acetamide], 16 µg/mL (≈ 31.2 µM).

As to `CC(=O)NC[C@H]1CN(c2ccc(-c3ccc(CNCc4ccc[nH]4)cc3)c(F)c2)C(=O)O1` [Compound 4048, N-[3-(2-Fluoro-4′-{[(1H-pyrrol-2-ylmethyl)-amino]-methyl}-biphenyl-4-yl)-2-oxo-oxazolidin-5-(S)-ylmethyl]-acetamide], the MIC came to 2 µg/mL (≈ 4.58 µM). Under `CC(=O)NC[C@H]1CN(c2ccc(-c3ccc(CNCC4CCN(C(=O)OC(C)(C)C)CC4)cc3)c(F)c2)C(=O)O1` [Compound 4298, 4-[({4′-[5-(S)-(Acetylamino-methyl)-2-oxo-oxazolidin-3-yl]-2′-fluoro-biphenyl-4-ylmethyl}-amino)-methyl]-piperidine-1-carboxylic acid tert-butylester] stands 8 µg/mL (≈ 14.4 µM).

Take `CC(=O)NC[C@H]1CN(c2ccc(-c3ccc(CSc4nc(C)cs4)cc3)c(F)c2)C(=O)O1` [Compound 2031, N-{3-[2-Fluoro-4′-(4-methyl-thiazol-2-ylsulfanylmethyl)-biphenyl-4-yl]-2-oxo-oxazolidin-5-(S)-ylmethyl}-acetamide]: the MIC worked out at 1 µg/mL (≈ 2.12 µM).

`CC(=O)NC[C@H]1CN(c2ccc(-c3ccc(CN4CCC(CCO)CC4)cc3)c(F)c2)C(=O)O1` [Compound 1030, N-(3-{2-Fluoro-4′-[4-(2-hydroxy-ethyl)-piperidin-1-ylmethyl]-biphenyl-4-yl}-2-oxo-oxazolidin-5-(S)-ylmethyl)-acetamide]: the MIC was determined as 2 µg/mL (≈ 4.26 µM). As to `CC(=O)NC[C@H]1CN(c2ccc(-c3ccc(C(=O)N[C@@H](Cc4cnc[nH]4)C(N)=O)cc3)c(F)c2)C(=O)O1` [Compound 4173, 4′-[5-(S)-(Acetylamino-methyl)-2-oxo-oxazolidin-3-yl]-2′-fluoro-biphenyl-4-carboxylic acid [1-carbamoyl-2-(S)-(3H-imidazol-4-yl)-ethyl]-amide], the MIC worked out at 32 µg/mL (≈ 62.9 µM).

`CC(=O)NC[C@H]1CC(c2ccc(-c3ccc(CNCc4ccncc4)cc3)nc2)=NO1` [Compound 4133, N-{3-[6-(4-{[(Pyridin-4-ylmethyl)-amino]-methyl}-phenyl)-pyridin-3-yl]-4,5-dihydro-isoxazol-5-(R)-ylmethyl}-acetamide]: the MIC was found to be 128 µg/mL (≈ 308 µM). Under `CC(=O)NC[C@H]1CN(c2ccc(-c3ccc(CN4CCCC(F)(F)C4)cc3)c(F)c2)C(=O)O1` [Compound 1097, N-{3-[4′-(3,3-Difluoro-piperidin-1-ylmethyl)-2-fluoro-biphenyl-4-yl]-2-oxo-oxazolidin-5-(S)-ylmethyl}-acetamide] stands 2 µg/mL (≈ 4.33 µM); under `CC(=O)NC[C@H]1CN(c2ccc(-c3ccc(C(=O)NCCc4cnc[nH]4)c(F)c3)c(F)c2)C(=O)O1` [Compound 4191, 4′-[5-(S)-(Acetylamino-methyl)-2-oxo-oxazolidin-3-yl]-3,2′-difluoro-biphenyl-4-carboxylic acid [2-(3H-imidazol-4-yl)-ethyl]-amide], 1 µg/mL (≈ 2.07 µM); under `CC(=O)NC[C@H]1CN(c2ccc(-c3ccc(CN(C)Cc4cnn[nH]4)cc3)c(F)c2)C(=O)O1` [Compound 4276, N-[3-(2-Fluoro-4′-{[methyl-(3H-[1,2,3]triazol-4-ylmethyl)-amino]-methyl}-biphenyl-4-yl)-2-oxo-oxazolidin-5-(S)-ylmethyl]-acetamide], 0.25 µg/mL (≈ 0.552 µM). Under `CC(=O)NC[C@H]1CN(c2ccc(-c3ccc(Cn4cc(CO)nn4)cc3)c(F)c2)C(=O)O1` [Compound 1028, N-{3-[2-Fluoro-4′-(4-hydroxymethyl-[1,2,3]triazol-1-ylmethyl)-biphenyl-4-yl]-2-oxo-oxazolidin-5-(S)-ylmethyl}-acetamide] stands 1 µg/mL (≈ 2.28 µM); under `CC(=O)NC[C@H]1CN(c2ccc(-c3ccc(CNCc4ccc5ccccc5n4)cc3)c(F)c2)C(=O)O1` [Compound 4019, N-[3-(2-Fluoro-4′-{[(quinolin-2-ylmethyl)-amino]-methyl}-biphenyl-4-yl)-2-oxo-oxazolidin-5-(S)-ylmethyl]-acetamide], 0.5 µg/mL (≈ 1 µM); under `CC(=O)NC[C@H]1CN(c2ccc(-c3ccc(CNCCSc4cnn[nH]4)cc3)c(F)c2)C(=O)O1` [Compound 5001, N-[3-(2-Fluoro-4′-{[2-(3H-[1,2,3]triazol-4-ylsulfanyl)-ethylamino]-methyl}-biphenyl-4-yl)-2-oxo-oxazolidin-5-(S)-ylmethyl]-acetamide], 1 µg/mL (≈ 2.06 µM). Under `CC(=O)NC[C@H]1CN(c2ccc(-c3ccc(CN/C(=N\O)c4ccncc4)cc3)c(F)c2)C(=O)O1` [Compound 4285, N-[3-(2-Fluoro-4′-{[(N-hydroxy-pyridine-4-carboximidoyl)-amino]-methyl}-biphenyl-4-yl)-2-oxo-oxazolidin-5-(S)-ylmethyl]-acetamide] stands 8 µg/mL (≈ 16.8 µM); under `CC(=O)NC[C@H]1CN(c2ccc(-c3ccc(CNCc4cnccc4N)cc3)c(F)c2)C(=O)O1` [Compound 4135, N-[3-(4′-{[(4-Amino-pyridin-3-ylmethyl)-amino]-methyl}-2-fluoro-biphenyl-4-yl)-2-oxo-oxazolidin-5-(S)-ylmethyl]-acetamide], 4 µg/mL (≈ 8.63 µM).

`CC(=O)NC[C@H]1CN(c2ccc(-c3ccc(CNCC4CCNCC4)cc3)c(F)c2)C(=O)O1` [Compound 4186, N-[3-(2-Fluoro-4′-{[(piperidin-4-ylmethyl)-amino]-methyl}-biphenyl-4-yl)-2-oxo-oxazolidin-5-(S)-ylmethyl]-acetamide]: the MIC was 64 µg/mL (≈ 141 µM).

With `CC(=O)NC[C@H]1CN(c2ccc(-c3ccc(CN(C)Cc4ccccn4)cc3)c(F)c2)C(=O)O1` [Compound 4045, N-(3-{2-Fluoro-4′-[(methyl-pyridin-2-ylmethyl-amino)-methyl]-biphenyl-4-yl}-2-oxo-oxazolidin-5-(S)-ylmethyl)-acetamide], the MIC was determined as 2 µg/mL (≈ 4.32 µM). Under `CC(=O)NC[C@H]1CN(c2ccc(-c3ccc(CNCc4cnoc4)nc3)c(F)c2)C(=O)O1` [Compound 4252, N-{3-[3-Fluoro-4-(6-{[(isoxazol-4-ylmethyl)-amino]-methyl}-pyridin-3-yl)-phenyl]-2-oxo-oxazolidin-5-(S)-ylmethyl}-acetamide] stands 2 µg/mL (≈ 4.55 µM); under `Cn1nnnc1SC[C@H]1CN(c2ccc(-c3ccc(CNCc4ccncc4)cc3)c(F)c2)C(=O)O1` [Compound 4231, 3-(2-Fluoro-4′-{[(pyridin-4-ylmethyl)-amino]-methyl}-biphenyl-4-yl)-5-(R)-(1-methyl-1H-tetrazol-5-ylsulfanylmethyl)-oxazolidin-2-one], 32 µg/mL (≈ 63.3 µM). Under `CC(=O)NC[C@H]1CN(c2ccc(-c3ccc(CNNC(=O)c4cccnc4)cc3)c(F)c2)C(=O)O1` [Compound 4237, N-(3-{2-Fluoro-4′-[N′-(pyridine-3-carbonyl)-hydrazinomethyl]-biphenyl-4-yl}-2-oxo-oxazolidin-5-(S)-ylmethyl)-acetamide] stands 0.25 µg/mL (≈ 0.524 µM); under `CC(=O)NC[C@H]1CN(c2ccc(-c3ccc(CNCc4ccncc4)cc3)nc2)C(=O)O1` [Compound 4134, N-{2-Oxo-3-[6-(4-{[(pyridin-4-ylmethyl)-amino]-methyl}-phenyl)-pyridin-3-yl]-oxazolidin-5-(S)-ylmethyl}-acetamide], 16 µg/mL (≈ 37.1 µM); under `CC(=O)NC[C@H]1CN(c2ccc(-c3ccc(CNC(=O)[C@H](N)Cc4cnc[nH]4)cc3)c(F)c2)C(=O)O1` [Compound 4292, N-{4′-[5-(S)-(Acetylamino-methyl)-2-oxo-oxazolidin-3-yl]-2′-fluoro-biphenyl-4-ylmethyl}-2-(R)-amino-3-(3H-imidazol-4-yl)-propionamide], 16 µg/mL (≈ 32.4 µM).

With `CC(=O)NC[C@H]1CN(c2ccc(-c3ccc(CNC(=O)/C=C/c4cncn(C)c4=O)cc3)c(F)c2)C(=O)O1` [Compound 4007, N-{4′-[5-(S)-(Acetylamino-methyl)-2-oxo-oxazolidin-3-yl]-2′-fluoro-biphenyl-4-ylmethyl}-3-(1-methyl-6-oxo-1,6-dihydro-pyrimidin-5-yl)-acrylamide], the MIC was found to be 1 µg/mL (≈ 1.92 µM).
